Measured values as given in PubChem BioAssay AID1918936 (Molecular Pharmacology Branch, DTP, NCI, 2023).

Test system: 349418-098-R-PDC complex spheroid viability
Test: Anticancer human tumor 349418-098-R-PDC patient-derived lung adenocarcinoma cell line growth inhibition
Details: for IC50: curve of first compound; for viability, T/C: stronger effect = lower value; active = viability on the fitted dose curve at most 10% of control; inactive = the rest
Outline: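 Drug combinations with the LSD1 inhibitor iadademstat tested on tumor cells co-cultured as spheroids with endothelial cells and mesenchymal stem cells. Concentrations descended in half-log increments from clinical Cmax or 10 microM.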

[1] = second compound 0.1 µM, first compound 0.000316 µM
[2] = second compound 0.1 µM, first compound 0.001 µM
[3] = second compound 0.1 µM, first compound 0.00316 µM
[4] = second compound 0.1 µM, first compound 0.01 µM
[5] = second compound 0.1 µM, first compound 0.0316 µM
[6] = second compound 0.1 µM, first compound 0.1 µM
[7] = second compound 0.316 µM, first compound 0.000316 µM
[8] = second compound 0.316 µM, first compound 0.001 µM
[9] = second compound 0.316 µM, first compound 0.00316 µM
[10] = second compound 0.316 µM, first compound 0.01 µM
[11] = second compound 0.316 µM, first compound 0.0316 µM
[12] = second compound 0.316 µM, first compound 0.1 µM
[13] = second compound 1 µM, first compound 0.000316 µM
[14] = second compound 1 µM, first compound 0.001 µM
[15] = second compound 1 µM, first compound 0.00316 µM
[16] = second compound 1 µM, first compound 0.01 µM
[17] = second compound 1 µM, first compound 0.0316 µM
[18] = second compound 1 µM, first compound 0.1 µM
[19] = second compound 3.16 µM, first compound 0.000316 µM
[20] = second compound 3.16 µM, first compound 0.001 µM
[21] = second compound 3.16 µM, first compound 0.00316 µM
[22] = second compound 3.16 µM, first compound 0.01 µM
[23] = second compound 3.16 µM, first compound 0.0316 µM
[24] = second compound 3.16 µM, first compound 0.1 µM
[25] = second compound 10 µM, first compound 0.000316 µM
[26] = second compound 10 µM, first compound 0.001 µM
[27] = second compound 10 µM, first compound 0.00316 µM
[28] = second compound 10 µM, first compound 0.01 µM
[29] = second compound 10 µM, first compound 0.0316 µM
[30] = second compound 10 µM, first compound 0.1 µM
[31] = second compound 0.1 µM, first compound 0.00949 µM
[32] = second compound 0.1 µM, first compound 0.03 µM
[33] = second compound 0.1 µM, first compound 0.0949 µM
[34] = second compound 0.1 µM, first compound 0.3 µM
[35] = second compound 0.1 µM, first compound 0.949 µM
[36] = second compound 0.1 µM, first compound 3 µM
[37] = second compound 0.316 µM, first compound 0.00949 µM
[38] = second compound 0.316 µM, first compound 0.03 µM
[39] = second compound 0.316 µM, first compound 0.0949 µM
[40] = second compound 0.316 µM, first compound 0.3 µM
[41] = second compound 0.316 µM, first compound 0.949 µM
[42] = second compound 0.316 µM, first compound 3 µM
[43] = second compound 1 µM, first compound 0.00949 µM
[44] = second compound 1 µM, first compound 0.03 µM
[45] = second compound 1 µM, first compound 0.0949 µM
[46] = second compound 1 µM, first compound 0.3 µM
[47] = second compound 1 µM, first compound 0.949 µM
[48] = second compound 1 µM, first compound 3 µM
[49] = second compound 3.16 µM, first compound 0.00949 µM
[50] = second compound 3.16 µM, first compound 0.03 µM
[51] = second compound 3.16 µM, first compound 0.0949 µM
[52] = second compound 3.16 µM, first compound 0.3 µM
[53] = second compound 3.16 µM, first compound 0.949 µM
[54] = second compound 3.16 µM, first compound 3 µM
[55] = second compound 10 µM, first compound 0.00949 µM
[56] = second compound 10 µM, first compound 0.03 µM
[57] = second compound 10 µM, first compound 0.0949 µM
[58] = second compound 10 µM, first compound 0.3 µM
[59] = second compound 10 µM, first compound 0.949 µM
[60] = second compound 10 µM, first compound 3 µM
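Also: spheroids exposed to agents for seven days before readout.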
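For viability, T/C in this document: 100% = DMSO vehicle control wells.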

CC(C)CC(NC(=O)C(Cc1ccccc1)NC(=O)c1cnccn1)B(O)O (stereo not given) + NC1CC1c1ccc(-c2cccc(O)c2)cc1
< 0.316 nM: IC50 (second compound 0.1 µM) | IC50 (second compound 0.316 µM) | IC50 (second compound 1 µM) | IC50 (second compound 3.16 µM) | IC50 (second compound 10 µM)
active: viability, T/C [1] 2.67% | viability, T/C [2] 1.51% | viability, T/C [3] 1.31% | viability, T/C [4] 0.5% | viability, T/C [5] 0.51% | viability, T/C [6] 0.69% | viability, T/C [7] 1.86% | viability, T/C [8] 1.09% | viability, T/C [9] 0.81% | viability, T/C [10] 0.41% | viability, T/C [11] 0.45% | viability, T/C [12] 0.34% | viability, T/C [13] 1.69% | viability, T/C [14] 1.07% | viability, T/C [15] 0.72% | viability, T/C [16] 0.42% | viability, T/C [17] 0.29% | viability, T/C [18] 0.53% | viability, T/C [19] 1.62% | viability, T/C [20] 0.92% | viability, T/C [21] 0.86% | viability, T/C [22] 1.06% | viability, T/C [23] 0.37% | viability, T/C [24] 0.41% | viability, T/C [25] 0.84% | viability, T/C [26] 0.41% | viability, T/C [27] 0.68% | viability, T/C [28] 0.31% | viability, T/C [29] 0.14% | viability, T/C [30] 0.17%

CC(C)CC(NC(=O)CNC(=O)c1cc(Cl)ccc1Cl)B1OC(=O)CC(CC(=O)O)(C(=O)O)O1 (stereo not given) + NC1CC1c1ccc(-c2cccc(O)c2)cc1
0.646 nM: IC50 (second compound 10 µM)
0.839 nM: IC50 (second compound 3.16 µM)
active: viability, T/C [3] 5.55% | viability, T/C [4] 2.78% | viability, T/C [5] 1.26% | viability, T/C [6] 1.31% | viability, T/C [9] 4.64% | viability, T/C [10] 1.64% | viability, T/C [11] 1.2% | viability, T/C [12] 0.9% | viability, T/C [15] 5.1% | viability, T/C [16] 1.67% | viability, T/C [17] 1.15% | viability, T/C [18] 0.9% | viability, T/C [21] 4.76% | viability, T/C [22] 1.62% | viability, T/C [23] 0.95% | viability, T/C [24] 1.19% | viability, T/C [27] 3.46% | viability, T/C [28] 1.24% | viability, T/C [29] 0.47% | viability, T/C [30] 0.62%
inactive: viability, T/C [1] 108% | viability, T/C [2] 40.2% | viability, T/C [7] 114% | viability, T/C [8] 35.6% | viability, T/C [13] 109% | viability, T/C [14] 36.1% | viability, T/C [19] 115% | viability, T/C [20] 38.4% | viability, T/C [25] 94.3% | viability, T/C [26] 22.8%
0.802 nM: IC50 (second compound 1 µM)
0.809 nM: IC50 (second compound 0.316 µM)
0.846 nM: IC50 (second compound 0.1 µM)

Nc1ccccc1NC(=O)c1ccc(CNC(=O)OCc2cccnc2)cc1 + NC1CC1c1ccc(-c2cccc(O)c2)cc1
active: viability, T/C [35] 6.54% | viability, T/C [36] 3.26% | viability, T/C [41] 6.05% | viability, T/C [42] 3.43% | viability, T/C [47] 6.06% | viability, T/C [48] 3.46% | viability, T/C [53] 6.45% | viability, T/C [54] 2.77% | viability, T/C [59] 5.86% | viability, T/C [60] 2.77%
136 nM: IC50 (second compound 10 µM)
102 nM: IC50 (second compound 0.316 µM)
145 nM: IC50 (second compound 3.16 µM)
121 nM: IC50 (second compound 1 µM)
inactive: viability, T/C [31] 94% | viability, T/C [32] 68.2% | viability, T/C [33] 53.2% | viability, T/C [34] 20.4% | viability, T/C [37] 102% | viability, T/C [38] 84.8% | viability, T/C [39] 53.8% | viability, T/C [40] 17.8% | viability, T/C [43] 106% | viability, T/C [44] 83.1% | viability, T/C [45] 61.2% | viability, T/C [46] 22.6% | viability, T/C [49] 102% | viability, T/C [50] 84.4% | viability, T/C [51] 67.9% | viability, T/C [52] 23.9% | viability, T/C [55] 93.3% | viability, T/C [56] 81.7% | viability, T/C [57] 64.3% | viability, T/C [58] 21.7%
83.7 nM: IC50 (second compound 0.1 µM)

O=C(C=Cc1cccc(S(=O)(=O)Nc2ccccc2)c1)NO + NC1CC1c1ccc(-c2cccc(O)c2)cc1
inactive: viability, T/C [31] 76% | viability, T/C [32] 70% | viability, T/C [33] 20.3% | viability, T/C [34] 3.17% | viability, T/C [35] 0.96% | viability, T/C [36] 103% | viability, T/C [37] 76.8% | viability, T/C [38] 70.2% | viability, T/C [39] 19.2% | viability, T/C [40] 3.03% | viability, T/C [41] 0.63% | viability, T/C [42] 103% | viability, T/C [43] 83.1% | viability, T/C [44] 68.7% | viability, T/C [45] 20.3% | viability, T/C [46] 3.41% | viability, T/C [47] 0.58% | viability, T/C [48] 103% | viability, T/C [49] 77.7% | viability, T/C [50] 78.5% | viability, T/C [51] 22.2% | viability, T/C [52] 3.57% | viability, T/C [53] 0.78% | viability, T/C [54] 96.6% | viability, T/C [55] 81.5% | viability, T/C [56] 56.3% | viability, T/C [57] 14.6% | viability, T/C [58] 3.03% | viability, T/C [59] 0.44% | viability, T/C [60] 58.3%
36.4 nM: IC50 (second compound 10 µM)
53.8 nM: IC50 (second compound 1 µM)
54.7 nM: IC50 (second compound 0.316 µM)
54.8 nM: IC50 (second compound 0.1 µM)
59.5 nM: IC50 (second compound 3.16 µM)

O=C(c1cc(Cc2n[nH]c(=O)c3ccccc23)ccc1F)N1CCN(C(=O)C2CC2)CC1 + NC1CC1c1ccc(-c2cccc(O)c2)cc1
> 10000 nM: IC50 (second compound 3.16 µM)
8040 nM: IC50 (second compound 1 µM)
inactive: viability, T/C [5] 106% | viability, T/C [6] 108% | viability, T/C (second compound 0.1 µM, first compound 0.316 µM) 99.3% | viability, T/C (second compound 0.1 µM, first compound 1 µM) 99.3% | viability, T/C (second compound 0.1 µM, first compound 3.16 µM) 86% | viability, T/C (second compound 0.1 µM, first compound 10 µM) 45.5% | viability, T/C [11] 111% | viability, T/C [12] 105% | viability, T/C (second compound 0.316 µM, first compound 0.316 µM) 103% | viability, T/C (second compound 0.316 µM, first compound 1 µM) 98.5% | viability, T/C (second compound 0.316 µM, first compound 3.16 µM) 77.6% | viability, T/C (second compound 0.316 µM, first compound 10 µM) 43.9% | viability, T/C [17] 116% | viability, T/C [18] 106% | viability, T/C (second compound 1 µM, first compound 0.316 µM) 105% | viability, T/C (second compound 1 µM, first compound 1 µM) 104% | viability, T/C (second compound 1 µM, first compound 3.16 µM) 69.1% | viability, T/C (second compound 1 µM, first compound 10 µM) 45.5% | viability, T/C [23] 116% | viability, T/C [24] 111% | viability, T/C (second compound 3.16 µM, first compound 0.316 µM) 101% | viability, T/C (second compound 3.16 µM, first compound 1 µM) 105% | viability, T/C (second compound 3.16 µM, first compound 3.16 µM) 75.5% | viability, T/C (second compound 3.16 µM, first compound 10 µM) 52.3% | viability, T/C [29] 97.1% | viability, T/C [30] 90.3% | viability, T/C (second compound 10 µM, first compound 0.316 µM) 75.2% | viability, T/C (second compound 10 µM, first compound 1 µM) 67% | viability, T/C (second compound 10 µM, first compound 3.16 µM) 49.9% | viability, T/C (second compound 10 µM, first compound 10 µM) 33.6%
8220 nM: IC50 (second compound 0.316 µM)
3190 nM: IC50 (second compound 10 µM)
8910 nM: IC50 (second compound 0.1 µM)
